# Source: publication PMC12290687, “Phenotypic Screening of the MMV Global Health Priority Box Identifies Selective Compounds with Anti-Toxoplasma gondii Activity” (ACS Omega, 2025)
# Where two headings read alike, the source gives them in different places.
# Tests used:
# [1] = test system: T. gondii intracellular tachyzoites; experiment: microbe, parasite or virus in culture; format: cell-based, Toxoplasma gondii RH-2F1; settings: half effective concentration against T. gondii intracellular tachyzoites in HFF, MOI 1:1, 72 h, duplicates in three independent experiments
# Description: (§1) Toxoplasma gondii RH-2F1 tachyzoites, which express β-galactosidase, were maintained in human foreskin fibroblasts (HFFs). HFFs were cultured in Dulbecco’s Modified Eagle Medium (DMEM) supplemented with 10% fetal bovine serum (FBS), 2 mM L-glutamine, and 40 μg/mL gentamicin (referred to as D10) and incubated at 37 °C in a 5% CO2 humidified atmosphere. For infection assays, confluent monolayers were maintained in DMEM with 2% FBS (D2) prior to parasite inoculation.
# (§2) For in vitro assays in 96-well plates, HFFs were seeded at 5 × 10^3 cells/well in the D10 medium and incubated for 12–16 h to allow adherence. […] For antiparasitic assays, HFFs were infected with RH-2F1 tachyzoites at a multiplicity of infection (MOI) of 1:1 for 3 h.
# Parasite proliferation was assessed by quantifying β-galactosidase activity, as previously described. Briefly, after the 72 h incubation, cells were lysed in 100 μL of lysis buffer (100 mM HEPES pH 7.5, 1 mM MgSO4, 0.1% Triton X-100, 5 mM DTT) for 15 min at room temperature. […] Following a 30 min incubation at 37 °C, absorbance was measured at 570 nm using a Varioskan LUX microplate reader (Thermo Scientific). Each assay included viability controls (untreated infected cells), solvent controls (1% DMSO), a positive control (1 μM pyrimethamine), and experimental blanks (no cells). All conditions were tested in two biological replicates in three independent experiments.
# Compounds from the GHPB library were screened at a final concentration of 1 μM in infected HFF monolayers, using the β-galactosidase assay as a readout for parasite viability after 72 h.
# [2] = Cytotoxicity assay (resazurin reduction) in uninfected HFFs; format: cell-based, human; settings: human
# Description: as §1, §2
# (§3) The resazurin assay was used to evaluate the compound cytotoxicity in uninfected HFFs. Following 72 h treatment, 100 μM resazurin was added to each well and incubated for 4 h at 37 °C. Fluorescence was measured using excitation/emission wavelengths of 565/590 nm. Controls included untreated cells (viability control), 1% DMSO (solvent control), 50 μM pyrimethamine (reference drug), and blank wells (no cells). Each condition was tested in duplicate in three independent experiments.
# [3] = test system: P. falciparum ring stages; settings: literature report, reference mark not given; cited from earlier work
# [4] = test system: human foreskin fibroblasts (HFF); experiment: Cytotoxicity assay (resazurin reduction) in uninfected HFFs; format: cell-based; settings: half cytotoxic concentration against HFF, 72 h, highest concentration tested 50 μM
# Description: as §1, §2, §3
# Plasmodium liver stages = settings: literature report, reference mark not given; cited from earlier work
# HepG2 cell line = test system: HepG2 cell line; parameters: method as in Timoumi et al.; settings: ref Timoumi et al.; cited from earlier work
# HEK293 cell line = test system: HEK293 cell line; parameters: method as in Timoumi et al.; settings: ref Timoumi et al.; cited from earlier work
# [5] = parameters: method as in Timoumi et al.; settings: doses of 350–500 mg/kg; ref Timoumi et al.; cited from earlier work
# VERO/RAW cells = test system: VERO/RAW cells; parameters: method as in Tali et al.; settings: ref Tali et al.; cited from earlier work
# H. contortus = test system: H. contortus; parameters: method as in Shanley et al. (2024); settings: ref Shanley et al. (2024); cited from earlier work
# [6] = uninfected human foreskin fibroblasts (HFF), half cytotoxic concentration against HFF, 72 h, highest concentration tested 50 μM, read-out: CC50 (μM) ± SD
smiles,measurement,setting,value
CCOc1ccccc1NC(=O)Cn1c(=O)n(Cc2ccccc2)c(=O)c2c(C)c(C(=O)N(C)C)sc21 [MMV006430],EC50,[1]; Toxoplasma gondii,0.3 ± 0.03 µM
same,CC50 at 72 h,[2]; [6],> 50 µM
same,time to activity against P. falciparum ring stages (fast-acting),[3],under 65 h
O=C(Nc1ccc(Cl)c(C(F)(F)F)c1)Nc1ccc(Cl)c(C(F)(F)F)c1 [MMV027339],EC50,[1],0.5 ± 0.02 µM
same,CC50,[4],5.51 ± 0.86 µM
CS(=O)(=O)c1ccc(-c2cnn3c2NC(c2cccc(S(=O)(=O)C4CC4)c2)CC3)cc1 (stereo not shown) [MMV674132],EC50,[1]; Toxoplasma gondii,0.19 ± 0.04 µM
same,CC50 at 72 h,[2]; [6],> 50 µM
same,activity against Plasmodium liver stages,Plasmodium liver stages,activity
same,time to activity against P. falciparum ring stages (fast-acting),[3],under 65 h
"O=C(NC(=O)c1ccccc1Cl)Nc1ccc(OC(F)(F)F)cc1 [MMV689404, Triflumuron]",EC50,[1]; Toxoplasma gondii,0.49 ± 0.03 µM
same,CC50 at 72 h,"[2]; half cytotoxic concentration against HFF, 72 h, highest concentration tested 50 μM, read-out: CC50 (μM) ± SD",> 50 µM
same,CC50,HepG2 cell line,120 µM
same,CC50,HEK293 cell line,200 µM
same,in vivo toxicity finding,[5],hepatotoxicity and oxidative stress
CN(C)C1CC(NC(=O)c2ccc(Nc3nccc(-c4ccc(Cl)c(C(F)(F)F)c4)n3)cc2)C1 (stereo not shown) [MMV884814],EC50,[1],0.76 ± 0.06 µM
same,CC50,[4],4.1 ± 1.18 µM
O=C(Nc1ncccc1O)c1ccc(N2CCOCC2)nc1 [MMV1103183],EC50,[1],0.72 ± 0.39 µM
same,CC50,[4],> 50 µM
O=C(Nc1ncccc1O)c1ccc(Cn2cccn2)cc1 [MMV1266067],EC50,[1],0.73 ± 0.13 µM
same,CC50,[4],> 50 µM
Cn1ccnc1SCC(=O)Nc1ccc(C(=O)Nc2ncccc2O)cc1 [MMV1267536],EC50,[1]; Toxoplasma gondii,0.19 ± 0.03 µM
same,CC50 at 72 h,[2]; [6],29.2 ± 2.79 µM
same,activity against Plasmodium liver stages,Plasmodium liver stages,activity
O=C(Nc1ncccc1O)c1ccc(S(=O)(=O)NCCc2cccs2)cc1 [MMV1435700],EC50,[1],0.34 ± 0.08 µM
same,CC50,[4],20 ± 3.8 µM
Cn1c(O)c(C(=O)Nc2ccc(Cl)c(Cl)c2)c(=O)n(C)c1=O [MMV1634081],EC50,[1],0.52 ± 0.01 µM
same,CC50,[4],30.8 ± 4.55 µM
CO/C=C(/C(=O)OC)c1ccccc1COc1c(C)c(-c2ccc(C)cc2C)nn1C [MMV1794211],EC50,[1]; Toxoplasma gondii,0.01 ± 0.01 µM
same,CC50,VERO/RAW cells,> 10 µM
"COc1cc(/C=N/c2c(SC(F)(F)F)c(C#N)nn2-c2c(Cl)cc(C(F)(F)F)cc2Cl)ccc1O [MMV1794214, Vaniliprole]",EC50,[1]; Toxoplasma gondii,0.07 ± 0.04 µM
same,CC50 at 72 h,[2],> 50 µM
same,effect on H. contortus,H. contortus,impairs motility and larval development
"CCc1nc(N)nc(N)c1-c1ccc(Cl)cc1 [Pyrimethamine, reference compound]",EC50,[1]; Toxoplasma gondii,0.38 ± 0.03 µM
same,CC50 at 72 h,[2]; [6],> 50 µM
